Legend:
Settings in all cases: incubation time: 72 h
DU-4475 [1] = assay: normalised response (% of control), CellTox Green; higher = less cell death (100 = DMSO, 0 = benzethonium chloride kill control)
Summary of the method: (§1)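 For each plate, 0.1 % DMSO was set to 100 and a positive kill control to 0. Breast cancer cell lines (20 µl suspension) were seeded into 384-well plates already holding compound at 5 concentrations in 10-fold steps over a 10,000-fold range chosen per compound, and incubated for 72 h. CellTox Green fluorescence at 485/520 nm was read before CellTiter-Glo luminescence, which followed 10 min at room temperature. Each value is the normalised signal at one concentration.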

MFM-223 [2] = assay: as above
Summary of the method: as §1

CAL-51 [3] = assay: as above
Summary of the method: as §1

Hs578T [4] = assay: as above
Summary of the method: as §1

HDQ-P1 [5] = assay: as above
Summary of the method: as §1

MDA-MB-453 [6] = assay: as above
Summary of the method: as §1

MCF-10A [7] = assay: as above
Summary of the method: as §1

HCC1599 [8] = assay: as above
Summary of the method: as §1

CAL-148 [9] = assay: as above
Summary of the method: as §1

CAL-85-1 [10] = assay: as above
Summary of the method: as §1

MDA-MB-231 [11] = assay: as above
Summary of the method: as §1

MDA-MB-436 [12] = assay: as above
Summary of the method: as §1

HCC1143 [13] = assay: as above
Summary of the method: as §1

BT-549 [14] = assay: as above
Summary of the method: as §1

HCC1937 [15] = assay: as above
Summary of the method: as §1

CAL-120 [16] = assay: as above
Summary of the method: as §1

MDA-MB-468 [17] = assay: as above
Summary of the method: as §1

BT-474 [18] = assay: as above
Summary of the method: as §1

DU-4475 [19] = assay: normalised response (% of control), CellTiter-Glo; higher = more viable cells (100 = DMSO, 0 = benzethonium chloride kill control)
Summary of the method: as §1

MFM-223 [20] = assay: as above
Summary of the method: as §1

CAL-51 [21] = assay: as above
Summary of the method: as §1

Hs578T [22] = assay: as above
Summary of the method: as §1

HDQ-P1 [23] = assay: as above
Summary of the method: as §1

MDA-MB-453 [24] = assay: as above
Summary of the method: as §1

MCF-10A [25] = assay: as above
Summary of the method: as §1

HCC1599 [26] = assay: as above
Summary of the method: as §1

CAL-148 [27] = assay: as above
Summary of the method: as §1

CAL-85-1 [28] = assay: as above
Summary of the method: as §1

MDA-MB-231 [29] = assay: as above
Summary of the method: as §1

MDA-MB-436 [30] = assay: as above
Summary of the method: as §1

HCC1143 [31] = assay: as above
Summary of the method: as §1

BT-549 [32] = assay: as above
Summary of the method: as §1

HCC1937 [33] = assay: as above
Summary of the method: as §1

CAL-120 [34] = assay: as above
Summary of the method: as §1

MDA-MB-468 [35] = assay: as above
Summary of the method: as §1

SK-BR-3 = assay: as above
Summary of the method: as §1

BT-474 [36] = assay: as above
Summary of the method: as §1

| Structure (SMILES) | normalised response (DU-4475 [1]) | normalised response (MFM-223 [2]) | normalised response (CAL-51 [3]) | normalised response (Hs578T [4]) | normalised response (HDQ-P1 [5]) | normalised response (MDA-MB-453 [6]) | normalised response (MCF-10A [7]) | normalised response (HCC1599 [8]) | normalised response (CAL-148 [9]) | normalised response (CAL-85-1 [10]) | normalised response (MDA-MB-231 [11]) | normalised response (MDA-MB-436 [12]) | normalised response (HCC1143 [13]) | normalised response (BT-549 [14]) | normalised response (HCC1937 [15]) | normalised response (CAL-120 [16]) | normalised response (MDA-MB-468 [17]) | normalised response (BT-474 [18]) | normalised response (DU-4475 [19]) | normalised response (MFM-223 [20]) | normalised response (CAL-51 [21]) | normalised response (Hs578T [22]) | normalised response (HDQ-P1 [23]) | normalised response (MDA-MB-453 [24]) | normalised response (MCF-10A [25]) | normalised response (HCC1599 [26]) | normalised response (CAL-148 [27]) | normalised response (CAL-85-1 [28]) | normalised response (MDA-MB-231 [29]) | normalised response (MDA-MB-436 [30]) | normalised response (HCC1143 [31]) | normalised response (BT-549 [32]) | normalised response (HCC1937 [33]) | normalised response (CAL-120 [34]) | normalised response (MDA-MB-468 [35]) | normalised response (SK-BR-3) | normalised response (BT-474 [36]) |
| --- | --- | --- | --- | --- | --- | --- | --- | --- | --- | --- | --- | --- | --- | --- | --- | --- | --- | --- | --- | --- | --- | --- | --- | --- | --- | --- | --- | --- | --- | --- | --- | --- | --- | --- | --- | --- | --- |
| CCCC(CCC)C(=O)O [Valproic acid] (100000 nM) | 105% | 99.4% | 53.4% | 63.5% | 75.3% | 111% | 53% | 101% | 85.4% | 107% | 102% | 109% | 110% | 95.3% | 86.4% | 107% | 123% | 98.1% | 94% | 99.2% | 83.5% | 104% | 101% | 91.1% | 101% | 94.1% | 91.4% | 101% | 98.7% | 101% | 101% | 103% | 103% | 96.1% | 97.8% | 101% | 98.6% |
| CN(c1ccccc1CNc1nc(Nc2ccc3c(c2)CC(=O)N3)ncc1C(F)(F)F)S(C)(=O)=O (1000 nM) | 97.4% | – | 15.1% | 65.3% | – | 106% | 101% | 97.1% | 96.8% | 99.4% | 83.4% | 104% | 71.2% | 116% | 111% | 99.7% | 150% | 101% | 84.8% | 92.3% | 53.6% | 89.1% | 84.5% | 128% | 63.5% | 107% | 91.1% | 87.2% | 76.4% | 101% | 87.8% | 93.5% | 94.5% | 81% | 69% | 79.7% | 73.2% |
| FC(F)c1nc2ccccc2n1-c1nc(N2CCOCC2)nc(N2CCOCC2)n1 [ZSTK474] (1000 nM) | 102% | 71% | 92.8% | 104% | 49.5% | 103% | 57.7% | 96.3% | 89.5% | 101% | 90.3% | 85.9% | 77.2% | 95.5% | 101% | 107% | 79.9% | 90.7% | 87.9% | 55.8% | 49.7% | 45.4% | 51.9% | 40.4% | 47.5% | 79.1% | 69.2% | 49.8% | 61.6% | 56.8% | 73.5% | 42.4% | 69.7% | 65.4% | 58.3% | 35.2% | 70.3% |
| Nc1nccc(-c2c(-c3ccc(F)cc3)ncn2C2CCCCC2)n1 (1000 nM) | 107% | – | 86.2% | – | 103% | 107% | 109% | 100% | 98.4% | 104% | 84% | 81.5% | 120% | 109% | 91.5% | 107% | 67.2% | 102% | 103% | 105% | 97% | 104% | 106% | 96.6% | 103% | 104% | 97.5% | 96.7% | 98.7% | 103% | 101% | 101% | 97.3% | 108% | 68.9% | 95.4% | 98.9% |
| COc1cc(Nc2ncc(F)c(Nc3ccc4c(n3)NC(=O)C(C)(C)O4)n2)cc(OC)c1OC [Tamatinib] (1000 nM) | 100% | 103% | 89.9% | 108% | 105% | 103% | 105% | 103% | 102% | 103% | 107% | 94.2% | 119% | 90.7% | – | 105% | – | 99.7% | 103% | 104% | 92.1% | 101% | 98.4% | 105% | 104% | 106% | 95.6% | 95.1% | 101% | 104% | 104% | 77.5% | 102% | 97.2% | 88.7% | 104% | 96.6% |
| Cc1cc(C(C)Nc2ccccc2)c2nc(N3CCOCC3)cc(=O)n2c1 (stereo not given) [TGX-221] (1000 nM) | 96.2% | 80.3% | 105% | 97.5% | 103% | 105% | 105% | 101% | 90.8% | 106% | 110% | 90.5% | 90.6% | 92.6% | 102% | 99.8% | 113% | 95.7% | 95.7% | 95% | 102% | 93.7% | 88% | 97.2% | 93.8% | 106% | 98.1% | 91.7% | 89.7% | 89.4% | 89.4% | 88.8% | 86.9% | 94.8% | 77.8% | 91.7% | 83.3% |
| CS(=O)(=O)CCNCc1ccc(-c2ccc3ncnc(Nc4ccc(OCc5cccc(F)c5)c(Cl)c4)c3c2)o1 [Lapatinib] (100 nM) | 98.3% | 101% | 101% | – | 92.8% | 92.5% | 109% | 105% | 77.7% | 96.8% | 115% | 91.4% | – | 126% | 118% | 96.9% | 116% | 96% | 99.1% | 104% | 90.5% | 115% | 83.9% | 92.2% | 79.1% | 97.2% | 98.3% | 96.1% | 108% | 103% | 103% | 104% | 94.6% | 102% | 102% | 50.2% | 99.9% |
| C[C@@H]1CCN(C(=O)CC#N)C[C@@H]1N(C)c1ncnc2[nH]ccc12 [Tofacitinib] (500 nM) | 101% | 103% | 103% | 115% | 102% | 101% | 64.1% | 112% | 108% | 102% | 116% | 82.4% | 98% | 129% | 132% | 102% | 137% | 104% | 103% | 108% | 75.8% | 99.8% | 104% | 94.5% | 97.5% | 138% | 109% | 106% | 107% | 104% | 99.6% | 98.4% | 100% | 98.6% | 104% | 107% | 107% |
| COC(=O)C[C@](O)(CCCC(C)(C)O)C(=O)O[C@@H]1C(OC)=C[C@]23CCCN2CCc2cc4c(cc2[C@H]13)OCO4 [Omacetaxine] (1000 nM) | 97.7% | 36% | 111% | 60.2% | 74.8% | 115% | 33.5% | 85.7% | 93.1% | 4.24% | 66.4% | 104% | 108% | 52.6% | 24.1% | 91.4% | 67.1% | 93.7% | 25% | 14.4% | 10.1% | 2% | 23.1% | 48.8% | 11.3% | 8.63% | 32% | 0.88% | 9.47% | 17.2% | 14.5% | 7.92% | 25.8% | 26.9% | 4.18% | 12.6% | 26.4% |
